The record followed here is ChEMBL document CHEMBL1201862, “PubChem BioAssay data set” (2004).

Activity calls are given as the source filed them.

What all share (type): functional
For assay [1], the target named is T1, Protein RecA (Mycobacterium tuberculosis, UniProt P9WHJ3).
T1 sequence (P9WHJ3 whole entry): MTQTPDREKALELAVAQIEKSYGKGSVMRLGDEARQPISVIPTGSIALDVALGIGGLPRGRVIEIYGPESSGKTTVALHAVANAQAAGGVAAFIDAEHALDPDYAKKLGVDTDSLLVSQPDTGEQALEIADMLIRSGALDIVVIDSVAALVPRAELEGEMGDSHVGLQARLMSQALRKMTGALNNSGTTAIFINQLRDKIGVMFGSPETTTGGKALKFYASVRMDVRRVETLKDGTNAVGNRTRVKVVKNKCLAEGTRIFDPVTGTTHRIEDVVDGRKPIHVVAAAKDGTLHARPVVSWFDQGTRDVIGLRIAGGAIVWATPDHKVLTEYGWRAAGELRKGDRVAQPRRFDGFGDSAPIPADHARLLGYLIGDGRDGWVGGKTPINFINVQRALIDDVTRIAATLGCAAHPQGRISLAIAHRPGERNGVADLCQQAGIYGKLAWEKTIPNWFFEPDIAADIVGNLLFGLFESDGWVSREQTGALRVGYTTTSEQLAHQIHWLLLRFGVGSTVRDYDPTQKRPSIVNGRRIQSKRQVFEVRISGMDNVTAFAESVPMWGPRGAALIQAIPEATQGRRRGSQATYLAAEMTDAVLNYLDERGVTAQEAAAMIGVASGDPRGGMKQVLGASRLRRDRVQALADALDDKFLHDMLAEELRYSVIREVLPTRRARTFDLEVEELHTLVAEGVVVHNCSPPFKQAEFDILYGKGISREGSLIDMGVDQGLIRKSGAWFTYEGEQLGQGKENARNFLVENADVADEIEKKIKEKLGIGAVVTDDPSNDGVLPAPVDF
Description: Fluorescence Cell-Free Homogeneous Dose Retest to Identify Inhibitors of RecA-Intein Splicing Activity. [Related pubchem assays (depositor defined):AID2097, AID2223, AID489010, AID492950].

Assay [2] has as its target T2, Apoptotic protease-activating factor 1 (Homo sapiens, UniProt O14727).
T2 sequence (O14727 whole entry): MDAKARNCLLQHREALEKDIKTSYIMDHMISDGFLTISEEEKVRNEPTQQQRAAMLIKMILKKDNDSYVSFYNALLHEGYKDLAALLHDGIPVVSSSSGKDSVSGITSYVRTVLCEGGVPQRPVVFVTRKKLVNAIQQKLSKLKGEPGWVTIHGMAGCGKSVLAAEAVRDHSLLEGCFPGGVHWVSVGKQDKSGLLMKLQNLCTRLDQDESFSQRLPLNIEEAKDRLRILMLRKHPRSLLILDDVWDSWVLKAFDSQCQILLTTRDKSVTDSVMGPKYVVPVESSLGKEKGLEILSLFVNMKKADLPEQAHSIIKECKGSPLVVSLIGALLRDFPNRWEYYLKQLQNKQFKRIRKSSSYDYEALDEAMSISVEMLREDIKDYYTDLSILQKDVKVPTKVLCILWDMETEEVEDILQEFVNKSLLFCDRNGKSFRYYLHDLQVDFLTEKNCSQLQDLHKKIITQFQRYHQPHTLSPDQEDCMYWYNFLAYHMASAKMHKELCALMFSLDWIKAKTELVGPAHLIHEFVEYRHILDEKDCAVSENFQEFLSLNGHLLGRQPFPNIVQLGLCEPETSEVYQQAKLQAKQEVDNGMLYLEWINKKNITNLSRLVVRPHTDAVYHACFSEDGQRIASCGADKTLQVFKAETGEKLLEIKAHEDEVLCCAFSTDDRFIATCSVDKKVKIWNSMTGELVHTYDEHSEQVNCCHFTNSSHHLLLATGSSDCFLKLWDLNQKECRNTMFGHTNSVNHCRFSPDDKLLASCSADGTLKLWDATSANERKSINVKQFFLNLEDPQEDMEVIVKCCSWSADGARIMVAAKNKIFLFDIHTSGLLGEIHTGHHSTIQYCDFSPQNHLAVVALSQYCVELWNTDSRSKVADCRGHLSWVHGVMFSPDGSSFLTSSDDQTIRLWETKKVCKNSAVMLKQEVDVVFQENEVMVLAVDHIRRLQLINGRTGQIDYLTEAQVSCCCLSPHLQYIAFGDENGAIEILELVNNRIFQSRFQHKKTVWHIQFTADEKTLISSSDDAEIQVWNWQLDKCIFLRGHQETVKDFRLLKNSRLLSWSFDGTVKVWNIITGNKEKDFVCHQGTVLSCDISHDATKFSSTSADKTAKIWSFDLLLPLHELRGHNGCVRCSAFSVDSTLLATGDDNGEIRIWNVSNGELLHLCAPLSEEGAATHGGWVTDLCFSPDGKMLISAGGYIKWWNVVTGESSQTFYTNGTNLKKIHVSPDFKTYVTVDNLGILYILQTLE

Assay [3] addresses T3, cAMP-dependent protein kinase catalytic subunit PRKX (Homo sapiens, UniProt P51817).
T3 sequence (P51817 whole entry): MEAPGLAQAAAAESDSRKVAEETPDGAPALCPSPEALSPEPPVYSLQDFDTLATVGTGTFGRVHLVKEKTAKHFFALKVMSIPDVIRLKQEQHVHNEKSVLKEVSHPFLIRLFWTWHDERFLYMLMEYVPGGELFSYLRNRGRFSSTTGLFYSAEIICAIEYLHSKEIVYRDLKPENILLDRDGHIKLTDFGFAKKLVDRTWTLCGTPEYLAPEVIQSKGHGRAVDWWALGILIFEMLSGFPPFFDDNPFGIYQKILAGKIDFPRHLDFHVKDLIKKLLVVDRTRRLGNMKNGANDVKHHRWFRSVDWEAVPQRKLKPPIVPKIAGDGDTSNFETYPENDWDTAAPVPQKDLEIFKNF

The target in assay [4] is ALK tyrosine kinase receptor (Homo sapiens, UniProt Q9UM73).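 Also: ALK tested as one member of a kinase panel screen.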
Assay [5] has as its target Macrophage-stimulating protein receptor (Homo sapiens, UniProt Q04912). Description: Navigating the Kinome. Panel member name: MST1R.
In assay [6] the target is Tyrosine-protein kinase JAK2 (Homo sapiens, UniProt O60674).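 Also: JAK2 tested as one member of a kinase panel.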
The target in assay [7] is Macrophage colony-stimulating factor 1 receptor (Homo sapiens, UniProt P07333).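 Also: value comes from the Navigating the Kinome screening panel, CSF1R member.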
In assay [8] the target is Death-associated protein kinase 3 (Homo sapiens, UniProt O43293).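 Also: measured as one member of a kinome-wide profiling panel.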
The target of assay [9] is Insulin-like growth factor 1 receptor (Homo sapiens, UniProt P08069). Description: Navigating the Kinome. Panel member name: IGF1R.
Assay [10] has as its target Mitogen-activated protein kinase 9 (Homo sapiens, UniProt P45984).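 Also: value from a kinome panel profiling assay, MAPK9 panel entry.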

Sequence of Tyrosine-protein kinase JAK2 (O60674 whole entry): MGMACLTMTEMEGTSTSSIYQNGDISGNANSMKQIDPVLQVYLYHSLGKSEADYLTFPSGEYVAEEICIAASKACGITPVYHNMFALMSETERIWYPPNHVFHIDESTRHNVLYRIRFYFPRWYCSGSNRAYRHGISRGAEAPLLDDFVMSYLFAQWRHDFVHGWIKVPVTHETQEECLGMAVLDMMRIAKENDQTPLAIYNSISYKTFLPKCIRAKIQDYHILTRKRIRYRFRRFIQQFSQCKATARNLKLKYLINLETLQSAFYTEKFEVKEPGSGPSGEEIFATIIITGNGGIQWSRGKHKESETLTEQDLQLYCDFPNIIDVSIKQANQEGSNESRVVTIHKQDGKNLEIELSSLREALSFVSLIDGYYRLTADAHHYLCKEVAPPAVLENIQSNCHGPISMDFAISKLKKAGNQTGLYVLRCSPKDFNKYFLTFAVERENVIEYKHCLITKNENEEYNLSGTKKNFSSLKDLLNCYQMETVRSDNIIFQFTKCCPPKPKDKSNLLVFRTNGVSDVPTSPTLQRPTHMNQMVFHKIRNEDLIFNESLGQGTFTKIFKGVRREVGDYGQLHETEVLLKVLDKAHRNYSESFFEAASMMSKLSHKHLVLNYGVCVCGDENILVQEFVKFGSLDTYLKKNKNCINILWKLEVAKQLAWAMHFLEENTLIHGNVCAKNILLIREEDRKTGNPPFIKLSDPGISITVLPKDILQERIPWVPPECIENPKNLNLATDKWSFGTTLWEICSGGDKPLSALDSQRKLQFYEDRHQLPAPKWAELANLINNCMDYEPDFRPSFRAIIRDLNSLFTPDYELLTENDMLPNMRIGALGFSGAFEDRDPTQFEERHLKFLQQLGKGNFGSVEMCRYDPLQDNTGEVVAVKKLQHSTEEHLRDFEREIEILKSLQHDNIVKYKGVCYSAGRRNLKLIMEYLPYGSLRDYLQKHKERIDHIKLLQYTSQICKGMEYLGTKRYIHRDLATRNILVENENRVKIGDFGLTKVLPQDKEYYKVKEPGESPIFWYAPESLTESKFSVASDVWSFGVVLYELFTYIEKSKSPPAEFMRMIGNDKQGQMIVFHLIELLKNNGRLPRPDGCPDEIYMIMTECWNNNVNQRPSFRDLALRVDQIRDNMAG
Sequence of Death-associated protein kinase 3 (O43293 whole entry): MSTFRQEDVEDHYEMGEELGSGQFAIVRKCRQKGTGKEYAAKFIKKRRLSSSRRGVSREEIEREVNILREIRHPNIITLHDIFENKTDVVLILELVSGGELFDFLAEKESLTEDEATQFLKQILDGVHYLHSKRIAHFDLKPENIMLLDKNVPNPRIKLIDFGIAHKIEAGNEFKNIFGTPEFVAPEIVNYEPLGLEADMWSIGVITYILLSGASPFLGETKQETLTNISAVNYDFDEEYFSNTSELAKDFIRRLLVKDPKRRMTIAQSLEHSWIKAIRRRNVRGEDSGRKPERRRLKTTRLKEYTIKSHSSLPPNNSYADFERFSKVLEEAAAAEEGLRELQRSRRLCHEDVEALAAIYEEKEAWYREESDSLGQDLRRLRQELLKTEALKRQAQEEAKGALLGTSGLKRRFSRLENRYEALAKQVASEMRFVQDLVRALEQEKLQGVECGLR
Sequence of Macrophage-stimulating protein receptor (Q04912 25-304 limits assumed): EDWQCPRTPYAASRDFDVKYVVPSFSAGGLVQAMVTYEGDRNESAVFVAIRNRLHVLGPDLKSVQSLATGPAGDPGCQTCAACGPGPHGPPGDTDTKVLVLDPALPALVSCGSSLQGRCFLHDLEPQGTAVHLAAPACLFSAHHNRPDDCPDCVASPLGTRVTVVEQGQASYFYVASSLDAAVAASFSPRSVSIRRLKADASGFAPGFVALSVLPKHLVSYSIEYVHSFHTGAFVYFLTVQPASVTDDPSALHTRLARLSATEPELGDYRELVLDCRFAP
Sequence of Macrophage-stimulating protein receptor (Q04912 310-1400 limits assumed): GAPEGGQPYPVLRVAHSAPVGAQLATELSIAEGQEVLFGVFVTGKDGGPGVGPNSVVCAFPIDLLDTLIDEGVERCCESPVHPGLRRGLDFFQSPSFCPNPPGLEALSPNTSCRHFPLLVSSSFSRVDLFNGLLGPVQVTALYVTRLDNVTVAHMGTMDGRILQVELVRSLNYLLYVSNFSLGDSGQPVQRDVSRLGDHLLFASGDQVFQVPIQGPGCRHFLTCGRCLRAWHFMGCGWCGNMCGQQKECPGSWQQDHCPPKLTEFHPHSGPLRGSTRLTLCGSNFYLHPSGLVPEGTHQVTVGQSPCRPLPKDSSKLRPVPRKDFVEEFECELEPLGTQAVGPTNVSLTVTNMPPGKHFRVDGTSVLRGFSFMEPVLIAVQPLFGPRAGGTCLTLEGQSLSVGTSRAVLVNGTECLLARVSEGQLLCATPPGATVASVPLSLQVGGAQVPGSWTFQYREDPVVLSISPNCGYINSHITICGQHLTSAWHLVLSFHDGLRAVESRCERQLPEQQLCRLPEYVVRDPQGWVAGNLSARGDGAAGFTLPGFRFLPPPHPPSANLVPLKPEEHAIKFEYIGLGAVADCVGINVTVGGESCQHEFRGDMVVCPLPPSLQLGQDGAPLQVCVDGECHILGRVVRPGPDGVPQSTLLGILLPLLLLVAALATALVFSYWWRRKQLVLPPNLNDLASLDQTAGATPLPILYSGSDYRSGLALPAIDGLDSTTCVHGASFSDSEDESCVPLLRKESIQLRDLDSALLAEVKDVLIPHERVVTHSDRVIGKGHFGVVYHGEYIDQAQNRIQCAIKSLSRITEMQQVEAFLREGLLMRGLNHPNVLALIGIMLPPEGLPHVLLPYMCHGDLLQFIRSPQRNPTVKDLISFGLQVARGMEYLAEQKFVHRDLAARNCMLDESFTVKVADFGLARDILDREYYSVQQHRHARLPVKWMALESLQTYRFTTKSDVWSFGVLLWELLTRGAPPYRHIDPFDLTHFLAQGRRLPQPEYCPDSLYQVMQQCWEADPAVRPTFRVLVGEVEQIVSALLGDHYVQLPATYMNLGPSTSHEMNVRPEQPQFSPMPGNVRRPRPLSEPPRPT
Sequence of Macrophage colony-stimulating factor 1 receptor (P07333 whole entry): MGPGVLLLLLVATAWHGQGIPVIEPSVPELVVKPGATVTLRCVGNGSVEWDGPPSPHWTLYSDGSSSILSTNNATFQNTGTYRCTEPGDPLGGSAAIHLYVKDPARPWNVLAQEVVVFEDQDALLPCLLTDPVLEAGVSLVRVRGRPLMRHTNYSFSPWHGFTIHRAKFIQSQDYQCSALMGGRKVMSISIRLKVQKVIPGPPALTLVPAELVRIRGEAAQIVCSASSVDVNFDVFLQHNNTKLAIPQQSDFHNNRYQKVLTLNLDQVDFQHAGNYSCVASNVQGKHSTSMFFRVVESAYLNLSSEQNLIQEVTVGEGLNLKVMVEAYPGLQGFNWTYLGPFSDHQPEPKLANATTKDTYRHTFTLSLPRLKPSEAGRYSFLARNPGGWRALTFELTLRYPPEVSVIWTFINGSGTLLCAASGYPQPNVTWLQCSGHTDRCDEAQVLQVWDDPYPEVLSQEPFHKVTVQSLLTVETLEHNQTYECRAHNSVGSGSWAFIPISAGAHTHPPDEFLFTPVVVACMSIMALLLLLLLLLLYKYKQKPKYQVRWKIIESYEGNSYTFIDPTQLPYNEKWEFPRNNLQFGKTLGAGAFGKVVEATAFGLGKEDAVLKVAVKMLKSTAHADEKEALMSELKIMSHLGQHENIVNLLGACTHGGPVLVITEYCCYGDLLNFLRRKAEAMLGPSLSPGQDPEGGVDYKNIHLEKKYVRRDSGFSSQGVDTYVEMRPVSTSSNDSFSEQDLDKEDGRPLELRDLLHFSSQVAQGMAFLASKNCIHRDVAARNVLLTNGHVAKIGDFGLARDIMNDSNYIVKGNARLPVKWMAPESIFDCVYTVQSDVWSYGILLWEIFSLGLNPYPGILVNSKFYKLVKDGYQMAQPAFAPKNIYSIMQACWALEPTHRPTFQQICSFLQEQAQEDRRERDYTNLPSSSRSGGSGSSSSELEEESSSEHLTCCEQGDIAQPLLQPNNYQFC
Sequence of Mitogen-activated protein kinase 9 (P45984 whole entry): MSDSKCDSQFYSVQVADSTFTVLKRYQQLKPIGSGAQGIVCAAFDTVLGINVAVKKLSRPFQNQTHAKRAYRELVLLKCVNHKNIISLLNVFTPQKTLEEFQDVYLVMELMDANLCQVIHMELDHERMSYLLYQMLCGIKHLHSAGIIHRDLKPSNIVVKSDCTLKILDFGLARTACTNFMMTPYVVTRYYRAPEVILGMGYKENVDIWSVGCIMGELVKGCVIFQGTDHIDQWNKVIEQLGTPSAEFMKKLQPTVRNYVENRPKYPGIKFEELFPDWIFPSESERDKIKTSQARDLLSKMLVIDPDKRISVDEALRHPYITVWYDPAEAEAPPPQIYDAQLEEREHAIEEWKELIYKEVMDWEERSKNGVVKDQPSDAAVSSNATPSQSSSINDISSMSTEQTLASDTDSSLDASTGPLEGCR

For orientation: EC50 means the concentration needed to bring the measured effect to its halfway point. The IC50 is the concentration that inhibits the measured activity by half. As to `O=C(Cc1ccccc1)NC1(O)C(=O)c2ccccc2C1=O`, the EC50 in assay [1] is 8.67 µM (active). Besides, in assay [2], the IC50 was 11 µM (active).
Broadly, the Ki is the equilibrium dissociation constant of an inhibitor or competing ligand from its target. Turning to `O=c1[nH]c2cc(Br)cnc2[nH]1`, the Ki is 12.6 µM (active) in [3]; 63.1 µM (active) in [4]; 63.1 µM (active) in assay [5]; 79.4 µM (active) in [6]; > 100 µM (inactive) in [7]; 12.6 µM (active) in assay [8].
For `O=C(Nc1cccc(C(F)(F)F)n1)Nc1ccnc2cc(OC(F)F)ccc12`, the Ki in [3] is > 3.16 µM (inactive); in assay [4], > 6.31 µM (inactive); in assay [5], > 3.98 µM (inactive); in assay [9], > 2.51 µM (inactive); in assay [10], > 3.98 µM (inactive); in assay [6], > 2.51 µM (inactive). Further, the Ki in [7] was > 2.51 µM (inactive); in assay [8] it was > 5.01 µM (inactive).
For the compound `O=C(Nc1cccc(C(F)(F)F)n1)Nc1ccnc2cc(Cl)ccc12`, the Ki in assay [3] is > 3.16 µM (inactive); in [4] it was > 6.31 µM (inactive); in [5], > 3.98 µM (inactive); in assay [9], > 2.51 µM (inactive); in assay [10], > 3.98 µM (inactive); in [6] it was 2.51 µM (active). For the same compound, the values for the Ki in assay [7] and in assay [8] were > 2.51 µM (inactive) and > 5.01 µM (inactive), respectively.
On to `CCC1CC(NS(=O)(=O)C2CC2)CC1c1ncc2cnc3[nH]ccc3n12` (stereo unspecified), for which the Ki in assay [3] is > 1.26 µM (inactive); in [4] it was 1 µM (active); in [5] it was 2 µM (active); in assay [9], > 2.51 µM (inactive); in [10], > 3.98 µM (inactive); in assay [6], 0.000126 µM (active). The Ki in assay [7] is 1.58 µM (active); in [8] it was 0.794 µM (active).
As to `Cc1cc(C)c(S(=O)(=O)/N=C2\C=C(Nc3ccc(C(=O)O)cc3)C(=O)c3ccccc32)c(C)c1`, the EC50 in [1] was 0.0696 µM (active). In addition, the IC50 in assay [2] is 6.01 µM (active).
Regarding `COC(=O)c1nc(-c2ccc3c(n2)C(=O)C(=N)C(OC)=C3O)c(N)c(-c2ccc(OC)c(OC)c2O)c1C`, in assay [1], the EC50 was 0.342 µM (active). Moreover, the half-inhibitory concentration (IC50) in [2] is 3.39 µM (active).
